Test results from patent publication US20250041309A1 (ZHENAO JINYINHUA PHARMACEUTICAL, priority 2021, published 2025).
Several values for one entry are separate records, joined by “and”; a condition that tells them apart may be missing. Identical values can stand only once. Counter-ions that a name gives are not always drawn.

Key:
[1] = system: MCAO rats; experiment: Neurological deficits (mNSS) score in MCAO rats, oral administration (Example 21); type: in vivo, SD rats; set-up: scale not given here; settings: gavage 4 mg/kg twice per day, one value per rat (30 per group)
Experimental: (§1) Administration route: gavage administration;
Dosage: 4 mg/kg body weight, twice per day;
Administration time: gavage administration twice in the morning and evening per day (administered immediately after modeling).
A rat model of middle cerebral artery ischemia/reperfusion (MCAO/R) was created using the suture method.
Scores were evaluated using the mNSS rat neurological deficit scoring method. The neurological deficits of the experimental rats were evaluated on 14 days after modeling. • ?

[2] = system: MCAO rats; experiment: Neurological function (behavioral) score in MCAO rats, oral administration (Example 23); type: in vivo, SD rats; settings: gavage 8 mg/kg twice a day; after 3, 7 and 14 days administration
Experimental: as §1
(§2) Dosage: 8 mg/kg body weight, twice a day;
(§3) Administration time: gavage administration twice a day in the morning and evening (administered immediately after modeling).
(§4) A rat model of middle cerebral artery ischemia/reperfusion (MCAO/R) was created using suture-occluded method.
After 2 hours of embolization, then reperfusion, according to the scoring criteria in the attached table, the degree of neurological damage in the animals was scored using a blind method. Those with significant neurological deficits (>8 points) were considered successful in modeling.
(§5) The successfully modeled rats were randomly divided into 4 groups based on their scores, with an average of 20 rats in each group.
Neurological function score: evaluation was conducted before treatment, 3 days, 7 days, and 14 days after treatment.

[3] = system: MCAO rats; experiment: Morris water maze experiment in MCAO rats, oral administration (Example 21); type: in vivo, SD rats; settings: gavage 4 mg/kg twice per day, 14 days water maze test
Experimental: Morris water maze experiment: testing the learning and memory abilities of rats.
The Morris water maze experiment is conducted continuously for 6 days each time, with training conducted for the first 5 days and testing conducted on 6th day.
For each of the tests, the rats were trained four times a day at a fixed time period for the first five days (once in the first, second, third, and fourth quadrants respectively). At the beginning of the training, a platform was placed in the first quadrant, and from any starting points of the four quadrants on the pool wall, the rats were placed into the pool, facing the pool wall. The camera system records the time when the rats found the platform and their swimming path. Four training sessions involved placing rats into water from four different starting points. If the rat finds the platform or cannot find it within 60 seconds, the experimenter will guide it to the platform, rest on the platform for 10 seconds, and then proceed to the next experiment.
The rats were removed from the platform, dried with a soft cloth, and put back into the cage. Afterwards, the next experiment on the rat was performed until the numbered animals had finished swimming, and then the next set of experiments was conducted.
This experiment was conducted on the 14th day after administration. […]

[4] = Weight monitoring of MCAO rats, oral administration (Example 21); type: in vivo, SD rats; settings: gavage 4 mg/kg twice per day; for Weight D 0: D 0, group mean; for Weight D 4: D 4, group mean; for Weight D 7: D 7, group mean; for Weight D 11: D 11, group mean; for Weight D 14: D 14, group mean; for Weight D 18: D 18, group mean; for Weight D 21: D 21, group mean; for Weight D 25: D 25, group mean; for Weight D 28: D 28, group mean
Experimental: Administration route: gavage administration; Dosage: 4 mg/kg body weight, twice per day; Administration time: gavage administration twice in the morning and evening per day (administered immediately after modeling). A rat model of middle cerebral artery ischemia/reperfusion (MCAO/R) was created using the suture method. […] After surgical exposure of the carotid artery, suture was performed without ischemia-reperfusion injury; • (3) Treatment group 1: MCAO model+[…] citrate drug treatment group; • (4) Treatment group 2: MCAO model+Sildenafil citrate drug treatment group; […]

[5] = system: MCAO rats; experiment: Cerebral infarction range (TTC) in MCAO rats, oral administration (Example 23); type: in vivo, SD rats; settings: gavage 8 mg/kg*2, after 14 days; for Improvement rate % of cerebral infarction range: versus model control group; for Total cerebral infarction %: x ± s, n = 20
Experimental: as §1, §2, §3, §4, §5
At the end of the experiment, the brain tissue of the rats was collected by bloodletting and frozen in a −20° C. freezer, and then is sliced into a thickness of 2 mm per slice. The brain tissue slices were placed in a 2% red tetrazolium (TTC) solution and incubated at 37° C. for 5 minutes. The infarcted tissue appeared white, while the non-infarcted tissue appeared red. Image J software was used to measure the area of cerebral infarction and the percentage of infarct area to the total brain area was calculated.

[6] = Physical and chemical properties of the experimental drugs (Example 23)
[7] = system: ischemic stroke model rats; experiment: Cerebral infarction range (TTC), ischemic stroke model rats, intravenous administration (Example 22); type: in vivo, SD rats; settings: 10 mg/kg iv qd 7 d
Text: (§6) On the day of the experiment, the rat was anesthetized with isoflurane gas and placed in a supine position for fixation. The skin was cut along the midline of the neck to expose the right common carotid artery. The nerves and fascia around the blood vessels from the common carotid artery bifurcation to the base of the skull were carefully removed, and the external and internal carotid arteries were separated sequentially. The MCAO suture was inserted from the free end of the external carotid artery, and the nylon suture was introduced into the internal carotid artery from the distal end of the external carotid artery. It was inserted into the Willis ring of the middle cerebral artery to effectively block the middle cerebral artery. The length of the inserted suture was 18-20 mm away from the bifurcation of the common carotid artery. Then the free end of the external carotid artery was ligated along with the endovascular suture to prevent bleeding. […] Animals were kept in cages. The animals successfully modeled were randomly divided into three groups based on their scores, namely the model control group, compound 1 AD group ([…] citrate group) 10 mg/kg, and compound 2 XD group (Sildenafil citrate group) 10 mg/kg, with 10 animals in each group. […] The endpoint of the experiment was 14 days after administration, and the dosage is detailed in the table below. This experiment was administered intravenously with a dosage of 10 mg/kg and a volume of 5 mL/kg, once per day for consecutive 7 days. At the end of the experiment, the brain tissue of the rats was collected by bloodletting and frozen in a -20° C. freezer, then are sliced with a thickness of 2 mm per slice. The brain tissue slices were placed in a 2% red tetrazolium (TTC) solution and incubated at 37° C. for 5 minutes. The infarcted tissue appeared white, while the non-infarcted tissue appeared red.

[8] = system: ischemic stroke model rats; experiment: Neurological function (behavioral) score, ischemic stroke model rats, intravenous administration (Example 22); type: in vivo, SD rats; set-up: scale not given here; settings: 10 mg/kg iv qd 7 d, x ± s, n = 10
Text: as §6, with “cages. After 2 hours of embolization, then reperfusion, according to the scoring criteria in the attached table, the degree of neurological damage in the animals was scored using a blind method. Those with significant neurological deficits (>8 points) were considered successful in modeling. • ? Grouping and administration” for “cages.”, “Score before treatment, 3 days after treatment, 7 days after treatment,” for “At the end of the experiment, the brain tissue of the rats was collected by bloodletting”, “14 days after treatment.” for “frozen in a -20° C. freezer, then are sliced with a thickness of 2 mm per slice. The brain tissue slices were placed in a 2% red tetrazolium (TTC) solution and incubated at 37° C. for 5 minutes. The infarcted tissue appeared white, while the non-infarcted tissue appeared red.”

| Molecule | Score for neurological deficits (mNSS) after 14 days of administration, individual rats [1] | behavioral scores compared with the model control group [2] | average latency period, Morris water maze [3] | Weight D 0 [4] | Weight D 4 [4] | Weight D 7 [4] | Weight D 11 [4] | Weight D 14 [4] | Weight D 18 [4] | Weight D 21 [4] | Weight D 25 [4] | Weight D 28 [4] | Improvement rate % of cerebral infarction range [5] | Total cerebral infarction % [5] | other results |
| --- | --- | --- | --- | --- | --- | --- | --- | --- | --- | --- | --- | --- | --- | --- | --- |
| CCCc1nn(C)c2c(=O)[nH]c(-c3cc(S(=O)(=O)N4C[C@@H](C)N[C@@H](C)C4)ccc3OCC)nc12 [Aildenafil, 1-[3-(6,7-dihydro-1-methyl-7-oxy-3-n-propyl-1H-pyrazolo[4,3-d]pyrimidin-5-yl)-4-ethoxybenzenesulfonyl]-3,5-dimethylpiperazine] | 7 (7×) and 5 (3×) and 6 (7×) and 8 (6×) and 9 (4×) and 10 (2×) | significant improvement | 8.93 s | 303.9 g | 251.4 g | 253.8 g | 274.1 g | 287.2 g | 312.0 g | 321.3 g | 341.9 g | 345.0 g | 31.5% | 17.0 ± 6.7 % |  |
| Yukinafil citrate |  | trend of improvement |  |  |  |  |  |  |  |  |  |  | 13.1% | 21.2 ± 6.3% | solubility in DMF or DMSO (in words) ([6]; DMF or DMSO): soluble; solubility in water (in words) ([6]; water): soluble |
| CCCc1nn(C)c2c(=O)[nH]c(-c3cc(S(=O)(=O)N4CCN(C)CC4)ccc3OCC)nc12 [Sildenafil citrate] | 8 (10×) and 9 (8×) and 7 (7×) and 10 (3×) and 5 and 6 |  | 16.88 s | 297.7 g | 251.4 g | 249.0 g | 266.9 g | 282.4 g | 307.6 g | 318.3 g | 339.6 g | 345.9 g |  |  | Total cerebral infarction % ([7]; 14 days after administration, x ± s, n = 10): 21.5 ± 8.6%; Improvement rate % of cerebral infarction range ([7]; 14 days, versus model control group): 14.0%; behavioral score, 3 days after medication ([8]; 3 days after medication): 7.4 ± 1.4; behavioral score, 7 days after medication ([8]; 7 days after medication): 6.1 ± 1.7; behavioral score, 14 days after medication ([8]; 14 days after medication): 4.9 ± 1.7; behavioral score, Before medication ([8]; before medication): 9.6 ± 0.5 |
